Measured values reported in patent publication US20230257396A1, “MACROCYCLES AND THEIR USE” (BLOSSOMHILL THERAPEUTICS, INC., priority 2020, published 2023).

Columns and labels:
Assay in all cases: KINOMEscan kinase binding assay (Eurofins/DiscoveRx), % Ctrl
Settings in all cases: 1 μM
kinases [1] = target: T1, kinases (Homo sapiens, UniProt P00519, Q252H)
T1 construct: purchased Eurofins/DiscoveRx; host or cells: E. coli BL21-derived host (T7 phage display) for most kinases; HEK-293 for the rest
How it was run: (§1)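 Competition binding, 1 h RT: phage-tagged or HEK-293-expressed DNA-tagged kinase + immobilized ligand + compound. Eluate kinase by qPCR. % Ctrl = (test − positive ctrl)/(negative ctrl − positive ctrl) × 100; lower means stronger binding.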

kinases [2] = target: T2, kinases (Homo sapiens, UniProt P10721)
T2 construct: purchased Eurofins/DiscoveRx; host or cells: E. coli BL21-derived host (T7 phage display) for most kinases; HEK-293 for the rest
T2 sequence (P10721 26-976): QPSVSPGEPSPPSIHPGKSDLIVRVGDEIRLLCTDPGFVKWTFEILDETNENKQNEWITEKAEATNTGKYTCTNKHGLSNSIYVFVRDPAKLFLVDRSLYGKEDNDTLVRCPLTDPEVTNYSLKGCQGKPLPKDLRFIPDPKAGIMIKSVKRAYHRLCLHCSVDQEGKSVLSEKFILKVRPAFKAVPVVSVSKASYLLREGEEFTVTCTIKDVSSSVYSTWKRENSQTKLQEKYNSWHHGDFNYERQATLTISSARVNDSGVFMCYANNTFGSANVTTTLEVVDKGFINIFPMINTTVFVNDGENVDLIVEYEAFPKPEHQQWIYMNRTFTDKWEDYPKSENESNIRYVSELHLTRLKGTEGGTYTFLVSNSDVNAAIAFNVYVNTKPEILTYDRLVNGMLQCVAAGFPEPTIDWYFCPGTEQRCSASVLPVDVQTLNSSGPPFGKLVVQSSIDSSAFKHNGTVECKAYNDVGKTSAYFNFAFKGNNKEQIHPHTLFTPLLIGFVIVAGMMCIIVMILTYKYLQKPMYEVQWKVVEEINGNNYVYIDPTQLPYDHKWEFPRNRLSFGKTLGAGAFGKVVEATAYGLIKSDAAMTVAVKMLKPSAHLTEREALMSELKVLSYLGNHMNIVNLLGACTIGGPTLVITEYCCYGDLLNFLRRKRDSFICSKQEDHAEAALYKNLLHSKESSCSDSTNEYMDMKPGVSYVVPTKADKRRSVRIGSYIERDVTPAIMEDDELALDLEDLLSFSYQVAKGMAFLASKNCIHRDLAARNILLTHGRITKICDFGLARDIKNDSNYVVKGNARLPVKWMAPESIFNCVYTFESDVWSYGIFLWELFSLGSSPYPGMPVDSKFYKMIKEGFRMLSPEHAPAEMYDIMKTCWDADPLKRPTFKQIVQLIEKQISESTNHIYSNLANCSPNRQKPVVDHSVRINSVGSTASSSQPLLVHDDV
How it was run: as §1

kinases [3] = target: T3, kinases (Homo sapiens, UniProt P00519, T315I)
T3 construct: purchased Eurofins/DiscoveRx; host or cells: E. coli BL21-derived host (T7 phage display) for most kinases; HEK-293 for the rest
How it was run: as §1

kinases [4] = target: T4, kinases (Homo sapiens, UniProt P36888, D835Y)
T4 construct: purchased Eurofins/DiscoveRx; host or cells: E. coli BL21-derived host (T7 phage display) for most kinases; HEK-293 for the rest
T4 sequence (P36888 27-993 D835Y): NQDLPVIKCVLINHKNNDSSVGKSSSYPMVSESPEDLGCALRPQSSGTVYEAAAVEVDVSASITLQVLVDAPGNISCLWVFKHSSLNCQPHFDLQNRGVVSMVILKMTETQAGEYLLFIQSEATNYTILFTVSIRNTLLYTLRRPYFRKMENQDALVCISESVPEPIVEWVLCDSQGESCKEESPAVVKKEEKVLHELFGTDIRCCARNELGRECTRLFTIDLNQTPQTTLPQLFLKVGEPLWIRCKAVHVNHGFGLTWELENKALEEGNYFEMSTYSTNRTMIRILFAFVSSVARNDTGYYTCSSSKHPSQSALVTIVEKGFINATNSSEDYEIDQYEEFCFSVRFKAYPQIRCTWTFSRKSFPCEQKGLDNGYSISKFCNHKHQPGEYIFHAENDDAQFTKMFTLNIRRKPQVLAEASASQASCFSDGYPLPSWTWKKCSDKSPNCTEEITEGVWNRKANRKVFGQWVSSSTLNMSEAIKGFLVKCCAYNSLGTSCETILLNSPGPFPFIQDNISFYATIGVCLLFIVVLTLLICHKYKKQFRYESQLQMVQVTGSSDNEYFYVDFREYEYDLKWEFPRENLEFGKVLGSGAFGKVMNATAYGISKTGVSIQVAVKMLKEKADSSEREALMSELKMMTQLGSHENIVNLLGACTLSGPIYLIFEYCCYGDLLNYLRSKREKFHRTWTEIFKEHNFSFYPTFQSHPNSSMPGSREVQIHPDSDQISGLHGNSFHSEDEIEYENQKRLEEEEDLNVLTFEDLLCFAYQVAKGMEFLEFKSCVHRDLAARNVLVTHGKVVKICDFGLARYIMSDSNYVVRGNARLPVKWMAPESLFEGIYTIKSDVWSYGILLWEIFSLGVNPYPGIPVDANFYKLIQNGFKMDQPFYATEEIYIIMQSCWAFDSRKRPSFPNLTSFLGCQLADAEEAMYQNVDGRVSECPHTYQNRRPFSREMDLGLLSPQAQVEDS
How it was run: as §1

kinases [5] = target: T5, kinases (Homo sapiens, UniProt P07949, V804M)
T5 construct: purchased Eurofins/DiscoveRx; host or cells: E. coli BL21-derived host (T7 phage display) for most kinases; HEK-293 for the rest
T5 sequence (P07949 29-1114 V804M): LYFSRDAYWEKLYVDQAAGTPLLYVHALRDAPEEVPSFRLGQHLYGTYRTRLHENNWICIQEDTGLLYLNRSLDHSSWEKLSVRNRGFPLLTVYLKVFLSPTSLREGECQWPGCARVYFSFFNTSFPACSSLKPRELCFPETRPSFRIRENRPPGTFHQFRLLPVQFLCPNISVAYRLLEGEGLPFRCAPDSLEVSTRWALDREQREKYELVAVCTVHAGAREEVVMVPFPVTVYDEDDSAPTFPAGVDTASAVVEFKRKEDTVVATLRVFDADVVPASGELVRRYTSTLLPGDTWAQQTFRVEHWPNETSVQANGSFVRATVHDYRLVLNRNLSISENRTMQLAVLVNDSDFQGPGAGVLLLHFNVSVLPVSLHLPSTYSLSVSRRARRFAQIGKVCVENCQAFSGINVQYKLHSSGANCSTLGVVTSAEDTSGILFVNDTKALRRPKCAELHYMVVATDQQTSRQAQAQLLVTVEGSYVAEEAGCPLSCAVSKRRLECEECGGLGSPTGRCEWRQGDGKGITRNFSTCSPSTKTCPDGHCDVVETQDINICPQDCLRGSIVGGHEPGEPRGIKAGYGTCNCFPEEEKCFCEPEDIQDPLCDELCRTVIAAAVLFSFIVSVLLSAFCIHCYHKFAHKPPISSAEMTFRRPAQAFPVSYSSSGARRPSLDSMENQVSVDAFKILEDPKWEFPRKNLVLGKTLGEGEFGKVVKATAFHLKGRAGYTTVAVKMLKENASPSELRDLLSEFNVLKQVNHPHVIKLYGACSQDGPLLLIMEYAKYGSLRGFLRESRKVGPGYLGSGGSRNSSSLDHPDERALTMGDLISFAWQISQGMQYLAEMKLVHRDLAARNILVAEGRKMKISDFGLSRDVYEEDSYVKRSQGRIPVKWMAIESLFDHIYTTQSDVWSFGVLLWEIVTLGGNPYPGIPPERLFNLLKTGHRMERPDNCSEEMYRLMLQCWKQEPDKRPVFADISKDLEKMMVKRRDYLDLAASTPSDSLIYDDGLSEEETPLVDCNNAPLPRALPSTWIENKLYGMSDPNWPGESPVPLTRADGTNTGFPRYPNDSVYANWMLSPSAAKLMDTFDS
How it was run: as §1

kinases [6] = target: T6, kinases (Homo sapiens, UniProt P16234)
T6 construct: purchased Eurofins/DiscoveRx; host or cells: E. coli BL21-derived host (T7 phage display) for most kinases; HEK-293 for the rest
T6 sequence (P16234 24-1089): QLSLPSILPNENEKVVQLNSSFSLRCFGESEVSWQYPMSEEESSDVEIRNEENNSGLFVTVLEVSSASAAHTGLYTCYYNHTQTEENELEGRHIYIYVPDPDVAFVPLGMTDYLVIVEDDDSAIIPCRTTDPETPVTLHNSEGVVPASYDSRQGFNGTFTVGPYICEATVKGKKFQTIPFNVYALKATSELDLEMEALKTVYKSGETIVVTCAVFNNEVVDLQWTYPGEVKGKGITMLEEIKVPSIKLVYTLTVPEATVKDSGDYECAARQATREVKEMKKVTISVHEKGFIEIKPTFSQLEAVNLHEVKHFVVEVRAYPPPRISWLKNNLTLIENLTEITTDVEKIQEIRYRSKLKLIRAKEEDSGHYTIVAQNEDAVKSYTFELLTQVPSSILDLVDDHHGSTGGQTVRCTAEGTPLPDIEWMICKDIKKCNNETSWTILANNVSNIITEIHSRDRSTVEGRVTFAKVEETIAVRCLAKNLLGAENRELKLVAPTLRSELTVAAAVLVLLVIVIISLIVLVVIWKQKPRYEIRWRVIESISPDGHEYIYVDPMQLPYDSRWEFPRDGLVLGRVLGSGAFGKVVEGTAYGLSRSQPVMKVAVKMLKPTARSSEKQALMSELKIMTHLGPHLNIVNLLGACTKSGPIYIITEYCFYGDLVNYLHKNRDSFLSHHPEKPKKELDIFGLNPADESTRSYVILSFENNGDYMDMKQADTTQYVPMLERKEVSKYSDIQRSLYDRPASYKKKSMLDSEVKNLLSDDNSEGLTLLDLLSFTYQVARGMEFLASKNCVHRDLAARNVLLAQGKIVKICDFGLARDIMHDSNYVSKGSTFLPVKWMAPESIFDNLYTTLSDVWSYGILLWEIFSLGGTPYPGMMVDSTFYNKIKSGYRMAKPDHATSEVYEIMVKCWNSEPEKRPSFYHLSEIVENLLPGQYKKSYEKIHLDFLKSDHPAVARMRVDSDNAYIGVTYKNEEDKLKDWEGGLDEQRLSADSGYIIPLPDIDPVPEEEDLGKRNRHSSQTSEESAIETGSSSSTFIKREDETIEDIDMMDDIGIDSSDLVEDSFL
How it was run: as §1

SMILES	% Ctrl, ABL1(Q252H)-nonphosphorylated (kinases [1]; ABL1(Q252H)-nonphosphorylated)	% Ctrl, ABL1(Q252H)-phosphorylated (kinases [1]; ABL1(Q252H)-phosphorylated)	% Ctrl, KIT (kinases [2]; KIT)	% Ctrl, KIT-autoinhibited (kinases [2]; KIT-autoinhibited)	% Ctrl, ABL1(T315I)-nonphosphorylated (kinases [3]; ABL1(T315I)-nonphosphorylated)	% Ctrl, ABL1(T315I)-phosphorylated (kinases [3]; ABL1(T315I)-phosphorylated)	% Ctrl, FLT3(D835Y) (kinases [4]; FLT3(D835Y))	% Ctrl, RET(V804M) (kinases [5]; RET(V804M))	% Ctrl, PDGFRA (kinases [6]; PDGFRA)	% Ctrl, ABL1(Q252H)-nonphosphorylated (kinases [1]; target ABL1(Q252H)-nonphosphorylated)	% Ctrl, ABL1(Q252H)-phosphorylated (kinases [1]; target ABL1(Q252H)-phosphorylated)	% Ctrl, KIT-autoinhibited (kinases [2]; target KIT-autoinhibited)	% Ctrl, KIT (kinases [2]; target KIT)	% Ctrl, ABL1(T315I)-nonphosphorylated (kinases [3]; target ABL1(T315I)-nonphosphorylated)	% Ctrl, ABL1(T315I)-phosphorylated (kinases [3]; target ABL1(T315I)-phosphorylated)	% Ctrl, FLT3(D835Y) (kinases [4]; target FLT3(D835Y))	% Ctrl, RET(V804M) (kinases [5]; target RET(V804M))	% Ctrl, PDGFRA (kinases [6]; target PDGFRA)
Cc1cc2c([nH]1)/C=C1\C(=O)Nc3ccc(nc31)-c1ccccc1OCCCNC2=O [Ex.22, [3a(4)Z]-6-methyl-9,10,11,12-tetrahydro-1,18-(ethanediylidene)dipyrrolo[3,2-g:3′,4′-j][1,5,12]benzoxadiazacyclopentadecine-3,8(2H,5H)-dione]	87 % Ctrl	74 % Ctrl	100 % Ctrl	100 % Ctrl	97 % Ctrl	100 % Ctrl	93 % Ctrl	93 % Ctrl	100 % Ctrl	–	–	–	–	–	–	–	–	–
Cc1cc2c([nH]1)/C=C1\C(=O)Nc3ccc(cc31)-c1ccnn1CCOCCNC2=O [Ex.39, [19a(20)Z]-2-methyl-6,7,9,10-tetrahydro-1H-15,17-(ethanediylidene)pyrazolo[1,5-d]dipyrrolo[3,4-h:2′,3′-k][1,4,14]oxadiazacyclohexadecine-4,19(5H,18H)-dione]	84 % Ctrl	93 % Ctrl	90 % Ctrl	86 % Ctrl	95 % Ctrl	26 % Ctrl	96 % Ctrl	94 % Ctrl	89 % Ctrl	–	–	–	–	–	–	–	–	–
Cc1cc2c([nH]1)/C=C1\C(=O)Nc3cnc(nc31)N(C)CCCOCCN(C)C2=O [Ex.71, [17a(18)Z]-2,5,12-trimethyl-6,7,9,10,11,12-hexahydro-1H-13,15-(azenometheno)dipyrrolo[3,2-f:3′,4′-i][1,4,11,13]oxatriazacyclohexadecine-4,17(5H,16H)-dione]	97 % Ctrl	100 % Ctrl	100 % Ctrl	100 % Ctrl	100 % Ctrl	100 % Ctrl	94 % Ctrl	89 % Ctrl	100 % Ctrl	–	–	–	–	–	–	–	–	–
Cc1cc2c([nH]1)/C=C1\C(=O)Nc3ccc(cc31)OCCOCCN(C)C2=O [Ex.91, [16a(17)Z]-2,5-dimethyl-6,7,9,10-tetrahydro-1H-12,14-(ethanediylidene)dipyrrolo[3,2-i:3′,4′-l][1,4,7]dioxazacyclopentadecine-4,16(5H,15H)-dione]	2.8 % Ctrl	11 % Ctrl	82 % Ctrl	73 % Ctrl	4.5 % Ctrl	5.8 % Ctrl	0.25 % Ctrl	4 % Ctrl	52 % Ctrl	–	–	–	–	–	–	–	–	–
Cc1cc2c([nH]1)/C=C1\C(=O)Nc3ccc(cc31)CN(C)C(=O)COCCNC2=O [Ex.111, [17a(18)Z]-2,11-dimethyl-6,7,11,12-tetrahydro-1H-13,15-(ethanediylidene)dipyrrolo[3,2-f:3′,4′-i][1,4,14]oxadiazacyclohexadecine-4,10,17(5H,9H,16H)-trione]	75 % Ctrl	57 % Ctrl	99 % Ctrl	100 % Ctrl	90 % Ctrl	64 % Ctrl	9.1 % Ctrl	51 % Ctrl	95 % Ctrl	–	–	–	–	–	–	–	–	–
Cc1cc2c([nH]1)/C=C1\C(=O)Nc3cnc(cc31)-c1cnn(C)c1COCCNC2=O [Ex.123, [3a(4)Z]-6,14-dimethyl-10,11,13,14-tetrahydro-2H-17,1-(azenometheno)pyrazolo[4,3-m]dipyrrolo[3,2-f:3′,4′-i][1,4]oxazacyclopentadecine-3,8(5H,9H)-dione]	92 % Ctrl	100 % Ctrl	97 % Ctrl	97 % Ctrl	100 % Ctrl	100 % Ctrl	72 % Ctrl	99 % Ctrl	100 % Ctrl	–	–	–	–	–	–	–	–	–
Cc1cc2c([nH]1)/C=C1\C(=O)Nc3ccc(cc31)-c1ccnn1CCOCCN(C)C2=O [Ex. 41, [19a(20)Z]-2,5-dimethyl-6,7,9,10-tetrahydro-1H-15,17-(ethanediylidene)pyrazolo[1,5-d]dipyrrolo[3,4-h:2′,3′-k][1,4,14]oxadiazacyclohexadecine-4,19(5H,18H)-dione]	9 % Ctrl	63 % Ctrl	58 % Ctrl	78 % Ctrl	16 % Ctrl	19 % Ctrl	8.8 % Ctrl	19 % Ctrl	19 % Ctrl	–	–	–	–	–	–	–	–	–
Cc1cc2c([nH]1)/C=C1\C(=O)Nc3ccc(cc31)-c1ccnn1CCNCCNC2=O [Ex. 43, [19a(20)Z]-2-methyl-5,6,7,8,9,10-hexahydro-15,17-(ethanediylidene)pyrazolo[1,5-g]dipyrrolo[3,4-k:2′,3′-n][1,4,7]triazacyclohexadecine-4,19(1H,18H)-dione]	55 % Ctrl	97 % Ctrl	100 % Ctrl	81 % Ctrl	68 % Ctrl	75 % Ctrl	86 % Ctrl	97 % Ctrl	80 % Ctrl	–	–	–	–	–	–	–	–	–
Cc1cc2c([nH]1)/C=C1\C(=O)Nc3cnc(cc31)-c1cn[nH]c1CNCCN(C)C2=O [Ex. 55, [3a(4)Z]-6,9-dimethyl-9,10,11,12,13,14-hexahydro-17,1-(azenometheno)pyrazolo[4,3-m]dipyrrolo[3,2-f:3′,4′-i][1,4]diazacyclopentadecine-3,8(2,5H)-dione]	–	–	–	–	–	–	–	–	–	2.8 % Ctrl	1.7 % Ctrl	39 % Ctrl	74 % Ctrl	1.6 % Ctrl	2.6 % Ctrl	2 % Ctrl	0.3 % Ctrl	50 % Ctrl
Cc1cc2c([nH]1)/C=C1\C(=O)Nc3ccc(cc31)O[C@@H](C)COCCN(C)C2=O [Ex. 92, [10S,16a(17)Z]-2,5,10-trimethyl-6,7,9,10-tetrahydro-1H-12,14-(ethanediylidene)dipyrrolo[3,2-i:3′,4′-l][1,4,7]dioxazacyclopentadecine-4,16(5H,15H)-dione]	0 % Ctrl	34 % Ctrl	91 % Ctrl	100 % Ctrl	12 % Ctrl	66 % Ctrl	28 % Ctrl	43 % Ctrl	95 % Ctrl	–	–	–	–	–	–	–	–	–
